{"source": "paper PMC2649375", "about": "(Journal of molecular neuroscience : MN, 2006)", "key": {"[1]": {"biological_target": "T1, R344H mutant 5-HT3 receptor (Mus musculus, UniProt P23979, R349H)", "T1 sequence (P23979 24-483 isoform P23979-2 R349H limits assumed)": "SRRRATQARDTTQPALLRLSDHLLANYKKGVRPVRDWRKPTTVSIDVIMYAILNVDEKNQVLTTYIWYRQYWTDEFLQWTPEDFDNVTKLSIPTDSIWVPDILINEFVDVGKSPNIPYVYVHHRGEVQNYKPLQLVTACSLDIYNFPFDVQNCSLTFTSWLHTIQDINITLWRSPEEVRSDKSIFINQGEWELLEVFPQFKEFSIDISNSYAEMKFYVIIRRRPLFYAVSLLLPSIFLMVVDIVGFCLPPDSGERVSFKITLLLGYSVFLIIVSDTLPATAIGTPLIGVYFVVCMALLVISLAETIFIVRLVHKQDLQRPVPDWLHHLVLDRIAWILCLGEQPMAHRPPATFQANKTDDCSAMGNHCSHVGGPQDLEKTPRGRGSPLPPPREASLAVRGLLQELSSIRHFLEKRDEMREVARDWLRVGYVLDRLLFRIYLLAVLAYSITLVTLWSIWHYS", "settings": "maximum number of binding sites, n = 9"}, "wild-type 5-HT3 receptor": {"biological_target": "T2, wild-type 5-HT3 receptor (Mus musculus, UniProt P23979)", "T2 sequence (P23979 24-483 isoform P23979-2 limits assumed)": "T1 sequence (P23979 24-483 isoform P23979-2 R349H limits assumed) with H326R", "settings": "maximum number of binding sites, n = 5"}, "[2]": {"biological_target": "T3, P391R mutant 5-HT3 receptor (Mus musculus, UniProt P23979, P402R)", "T3 sequence (P23979 24-483 isoform P23979-2 P396R limits assumed)": "T1 sequence (P23979 24-483 isoform P23979-2 R349H limits assumed) with H326R, P373R", "settings": "maximum number of binding sites, n = 5"}}, "note": "Residue numbers refer to the chain shown, from its start.", "data": [{"smiles": "CN1C2CCCC1CC(NC(=O)c1nn(C)c3ccccc13)C2", "note": "(stereo not drawn) [[^3H]Granisetron]", "values": [{"measurement": "Bmax", "setting": "[1]", "value": "853 ± 232", "unit": "fmol/mg"}, {"measurement": "Bmax", "setting": "wild-type 5-HT3 receptor", "value": "567 ± 149", "unit": "fmol/mg"}, {"measurement": "Bmax", "setting": "[2]", "value": "353 ± 113", "unit": "fmol/mg"}]}]}
